Experimental data as given in patent publication US20230132140A1, “METHOD OF TREATING CANCER” (Celloram Inc., priority 2021, published 2023).

Legend:
[1] = Immunogenicity of NeoAgs screened by Deepomics algorithm
COVID-19 patient's PBMC = details: cited from earlier work

Row | Sequence | immunogenic characteristics of NeoAgs [1] | induction of T cell responses (COVID-19 patient's PBMC)
1 | RVGGHLRLSGQ (SEQ ID NO: 3) (listed as Mus sp.) [MT4-6] | poorly immunogenic | 
2 | QAGPVLPTSLE (SEQ ID NO: 5) (listed as Mus sp.) [MT4-8] | poorly immunogenic | 
3 | TRFQTLLALHRSYLT (SEQ ID NO: 10) [Spike S236-250 peptide] |  | able to induce T cell responses
4 | LTPSFPVSP (SEQ ID NO: 2) (listed as Mus sp.) [MT4-2] | poorly immunogenic | 
5 | HRAERPFPEED (SEQ ID NO: 1) (listed as Mus sp.) [MT4-1] | poorly immunogenic | 
6 | GVRAALPTPR (SEQ ID NO: 4) (listed as Mus sp.) [MT4-7] | poorly immunogenic | 
